Our source for the TGI and GI50 values is PubChem BioAssay (NCI).

What all share (experiment): inhibition of tumour cell growth, NCI panel, 48 h
Test [1] relates to KM12 colon.
Test [2] concerns OVCAR-4 ovarian.
Test [3] concerns HT29 colon.
The subject of test [4] is OVCAR-3 ovarian.
Test [5] concerns A549 NSCLC.
Test [6] has as its system MALME-3M melanoma.
Test [7] has as its system UACC-257 melanoma.
Test [8] relates to NCI-H460 lung.
Test [9] relates to COLO 205 colon.
Test [10] relates to SR leukemia.
In test [11] the test system is SK-MEL-28 melanoma.

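Step 1: Grow cells in 96-well plates. Step 2: Expose to compound for 48 hours at 5 concentrations. Step 3: Interpolate endpoints linearly; if unreached, use highest concentration. Abbreviation: GI50, concentration required for 50% inhibition of growth. The concentration for full growth arrest is given as TGI.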

Take `Clc1ccc(Cc2nc3ccccc3nc2-c2cccc(Cl)c2)cc1`: the TGI was found to be 16.5 µM in test [1]; 3.24 µM in test [2]; 6 µM in test [3]; 17.4 µM in test [4]; 32.8 µM in [5]; 8.24 µM in [6]. Further, the TGI came to 39.3 µM in test [7], 37.8 µM in test [8] and 7.88 µM in [9].

As to `c1cc2c3c(c1)[C@@H]1O[C@@H]1c1cccc(c1-3)[C@@H]1O[C@H]21`, the TGI was 44 µM in test [1]; 56.3 µM in [2]; 50.1 µM in test [3]; over 100 µM in [5]; over 100 µM in test [10]; 31.3 µM in [11]. In addition, the TGI was 29.6 µM in test [6], 48.4 µM in test [7] and 44.6 µM in test [9].

Turning to `O=C1/C(=C/c2cccs2)N=C(c2ccccc2)N1c1nc2ccccc2s1`, the TGI in test [1], in [3], in test [4], in test [5], in test [10] and in test [11] was over 100 µM each time. The TGI in test [7] and in [8] was over 100 µM in each case.

Consider `COc1ccc(C(=O)/C=C/c2ccc(OCCCOc3ccc(/C=C/C(=O)c4ccc(OC)c(OC)c4)cc3)cc2)cc1OC`, for which the TGI in test [1], in test [2], in test [3], in [5], in [10] and in test [11] was over 100 µM throughout. In addition, the TGI in test [7], in test [8] and in test [9] was over 100 µM each time.

On to `OCC1c2ccccc2-n2nc(-c3ccccc3)c(O)c21` (configuration not stated), for which the TGI was 46.1 µM in [1]; over 100 µM in test [2]; 76.4 µM in [3]; 79.2 µM in test [4]; over 100 µM in [5]; over 100 µM in test [11]. The TGI in test [6] is 33.3 µM; in [7], over 100 µM; in [8] it was 77.2 µM; in [9], 26.5 µM.

With `COC(CC1(CCNc2ccccc2)C(=O)N(COCC[Si](C)(C)C)c2ccccc21)OC` (configuration not stated), the TGI in test [1] is 23.8 µM; in [2], 28.6 µM; in [3] it was 30 µM; in [4], 31.6 µM; in test [5] it was 34.3 µM; in test [10], over 100 µM. Further, the TGI in test [11] was 30.1 µM; in [7], 29.5 µM; in test [8] it was 34.4 µM; in test [9], 9.09 µM.

Take `CC(=O)NCC1OC2COC(c3ccccc3)OC2C2N=C(c3ccccc3)OC12` (configuration not stated): the TGI in [1], in test [2], in test [3], in test [4], in [5] and in test [11] was over 100 µM each time. For the same molecule, the TGI in [6], in test [7], in test [8] and in [9] was over 100 µM in each case.

As for `O=C(NCCNCCO)N/N=C/c1ccccc1`, the TGI in [1], in test [2], in [3], in test [4], in test [5] and in test [11] was over 100 µM each time. Besides, the TGI in test [6], in test [7] and in test [8] was over 100 µM throughout.

With `C/C(=C\COP(=O)(O)OP(=O)(O)O)CC/C=C(\C)CNc1ccccc1`, the TGI in test [1], in [3], in [5], in [11], in [7] and in test [8] was over 50 µM throughout. In [9], this molecule came in with a TGI of over 50 µM.

As for `CC(C)(C)C(=O)O[C@H]1C=C[C@@H](O)[C@@H]2[C@H]1[C@@H]1C=C[C@H]2C1`, the TGI in test [1] is 12.4 µM; in test [2], 60 µM; in test [4] it was over 100 µM; in test [5], over 100 µM; in [10], over 100 µM; in [11] it was 59.2 µM. For the same molecule, the TGI is 27.1 µM in test [7], over 100 µM in test [8] and over 100 µM in [9].

Turning to `COc1cccc(OC/C(N=Cc2ccncc2)=N/NC(=O)c2ccncc2)c1`, the TGI in test [1], in test [2], in test [3], in test [4], in test [5] and in test [11] was over 100 µM throughout. Also, the TGI in test [6], in test [7], in test [8] and in test [9] was over 100 µM each time.

On to `Cc1ccc(S(=O)(=O)CC2CCCn3c2c(C#N)c2ccccc23)cc1` (configuration not stated), for which the TGI in test [1], in [2], in test [3], in [4], in test [5] and in test [11] was over 100 µM throughout. Moreover, the TGI in test [7] and in test [9] was over 100 µM throughout.

Take `S=c1oc(CCCCCCCCc2nn(CNc3ccc(Cl)cc3)c(=S)o2)nn1CNc1ccc(Cl)cc1`: the TGI in test [1], in test [2], in test [3], in [5], in [11] and in test [6] was over 100 µM throughout. The TGI in [7] was over 100 µM; in test [8], over 100 µM; in test [9] it was 22.2 µM.

Take `CN1C(=O)C(CCO)(C(C)(C)C)c2ccccc21` (configuration not stated): the TGI in [1], in test [2], in [4], in [5], in test [10] and in test [11] was over 100 µM throughout. The TGI in test [7], in test [8] and in test [9] was over 100 µM each time.

As for `C/C=C\C(CC(=O)NCCc1c[nH]c2ccccc12)CC(=O)OC` (configuration not stated), the TGI in test [1], in test [2], in test [3], in test [4], in [5] and in [11] was over 100 µM throughout. The TGI in [6], in [7], in [8] and in test [9] was over 100 µM throughout.

On to `CCOc1ccccc1N=NC1C(=O)N(C(=O)CC(=O)Nc2ccccc2OC)N=C1C` (configuration not stated), for which the TGI in test [1], in test [2], in test [3], in [4], in [5] and in [11] was over 100 µM throughout. For the same molecule, the TGI in [6], in [8] and in [9] was over 100 µM each time.

As for `CCOC(=O)NC(OCc1ccccc1)(C(=O)OC)C(F)(F)F` (configuration not stated), the TGI in [1], in test [2], in test [3], in test [4], in [5] and in [10] was over 100 µM in each case. The TGI in test [11], in test [7], in test [8] and in test [9] was over 100 µM each time.

Consider `Cc1sc2nc3n(sc4nc5sc(C)c(C)c5c(=O)n43)c(=O)c2c1C`, for which the TGI in test [1], in test [2], in test [3], in test [4], in test [5] and in test [10] was over 100 µM throughout. Besides, the TGI in [11], in [7], in test [8] and in [9] was over 100 µM in each case.

Consider `Oc1ccc(O)c(Sc2nnc(CCCCCCCCc3nnc(Sc4cc(O)ccc4O)o3)o2)c1`, for which the TGI in [1], in test [2], in test [3], in test [5], in test [11] and in test [6] was over 100 µM throughout. Also, the TGI in test [7], in test [8] and in test [9] was over 100 µM each time.

Take `O=C(c1ccccc1)c1ccc2nc(-c3c(Cl)c(Cl)c(Cl)c(Cl)c3C(=O)Nc3ccco3)[nH]c2c1`: the TGI was over 100 µM in [1]; over 100 µM in [2]; over 100 µM in test [3]; over 100 µM in test [4]; over 100 µM in [5]; 58.8 µM in [10]. The TGI in test [11], in test [7], in test [8] and in [9] was over 100 µM each time.

As to `Cn1c(=O)[nH]n(-c2ccc3ccccc3c2)c1=O`, the TGI in [1], in test [2], in test [3], in test [4], in [5] and in [11] was over 100 µM each time. The TGI in test [6], in test [7], in test [8] and in [9] was over 100 µM throughout.

On to `O=C(O)c1cc(Nc2c(O)c3c(c(O)c2Cl)C(=O)C=CC3=O)ccc1O`, for which the TGI in test [1], in test [2], in [3], in [4], in [5] and in test [11] was over 10 µM throughout. The TGI in test [6], in test [7], in test [8] and in test [9] was over 10 µM each time.

`Cc1ccc(C(=O)NN=C(/N=N/c2cccc(C)c2)c2ccc(N(C)C)cc2)cc1`: the TGI in test [1], in [2], in test [3], in test [4], in [5] and in test [10] was over 100 µM in each case. The TGI in test [11], in [7], in test [8] and in test [9] was over 100 µM throughout.

Consider `O=C1c2ccccc2C2(c3ccc(Cl)cc3)N[C@@H]3CCCC[C@@H]3N12` (some centres not stated), for which the TGI in test [1], in [2], in [4], in [5], in test [10] and in test [11] was over 100 µM each time. Moreover, the TGI in [7], in test [8] and in test [9] was over 100 µM throughout.

Regarding `COc1ccc2c3c([nH]c2c1)-c1nc2ccccc2c(=O)n1CC3`, the TGI in [1], in test [2], in [5], in test [10], in [11] and in test [7] was over 25 µM each time. Also, the TGI in test [8] and in test [9] was over 25 µM throughout. The GI50 in [2] is over 25 µM; in test [5] it was 0.754 µM; in test [8], 1.38 µM.

As to `Cc1cc(=O)[nH]c(NN2C(Cl)C(=O)C2c2ccco2)n1` (configuration not stated), the TGI was over 100 µM in [1]; over 100 µM in test [2]; over 100 µM in test [3]; 79.4 µM in test [4]; over 100 µM in test [5]; over 100 µM in test [10]. Further, the TGI in test [7], in test [8] and in test [9] was over 100 µM throughout.

With `Cn1c(O)c(/C=N/c2ncccn2)c(=O)[nH]c1=O`, the TGI in [1], in test [2], in test [3], in [4], in test [5] and in test [11] was over 100 µM each time. For the same molecule, the TGI in [6], in test [7], in test [8] and in test [9] was over 100 µM in each case.

Consider `O=c1oc2ccccc2c(O)c1C(c1ccc(O)cc1)c1c(O)c2ccccc2oc1=O`, for which the TGI in test [1], in test [2], in test [3], in test [4], in test [11] and in test [6] was over 100 µM each time. Also, the TGI in test [7], in test [8] and in test [9] was over 100 µM each time.
